The test system of series [1] is advanced HCC with MET overexpression. The experiment in a line: Phase 2 randomised efficacy, tepotinib vs sorafenib (TTP, PFS, OS, response; RECIST v1.1). The class given is in vivo, human. The settings on record: Phase 2, mITT. An excerpt:
(§1) Patients in both phases continued to receive allocated therapy until disease progression, intolerable toxicity or withdrawal of consent.
(§2) In Phase 2, the primary endpoint was independent review committee (IRC)-assessed time to progression (TTP) per Response Evaluation Criteria in Solid Tumors (RECIST) v1.1. Secondary endpoints included investigator-assessed TTP, IRC- and investigator-assessed progression-free survival (PFS), objective response rate (ORR), disease control rate, OS and safety. In both phases, tumour assessments were performed according to RECIST v1.1 based on scans taken at the end of every second cycle until Cycle 13, and every four cycles thereafter.
(§3) In Phase 2, analyses were conducted according to randomised treatment assignment. […] In total, 100 TTP events were required to ensure 80% power (with a two-sided significance level of 10%) for rejecting the null hypothesis of equal treatment effect between treatment arms, assuming a true hazard ratio (HR) of 0.6. […] For the primary and secondary time-to-event endpoints, treatment groups were compared in the mITT population, applying a two-sided log-rank test, stratified by BCLC stage (α = 10%).

Series [2] deals with SACT-naive Asian patients with aHCC with MET overexpression. The experiment in a line: Phase 2 safety (adverse events, NCI-CTCAE v4.0). The following applies: for treatment-related AEs: ALT increased / treatment-related AEs: AST increased / treatment-related AEs: Alopecia / treatment-related AEs: Blood bilirubin increased / treatment-related AEs: Blood creatinine increased / treatment-related AEs: Diarrhoea / treatment-related AEs: Fatigue / treatment-related AEs: Hypertension / treatment-related AEs: Hypoalbuminaemia / treatment-related AEs: Oedema peripheral / treatment-related AEs: Overall / treatment-related AEs: PPES: Phase 2, safety analysis set. The method, then: as §1
DLTs are defined in Supplementary Table 3.
as §3

In series [3] the test system is advanced HCC. The settings on record: Phase 3 SHARP sorafenib trial; cited from earlier work.
Series [4] concerns advanced HCC. The settings on record: Phase 3 Asia-Pacific sorafenib trial; cited from earlier work.
The test system of series [5] is advanced HCC. Briefly: Phase 1b tumour response per RECIST v1.1. The class given is in vivo, human. The settings on record: for duration of partial response: one patient. The method, then: as §2
The nature of series [6]: Phase 1b pharmacokinetics, Cycle 1 Day 15. The class given is in vivo, human. The settings on record: for AUC / Cmax: human, in vivo, oral, Cycle 1 Day 15, geometric mean.
Experimental: Secondary endpoints in Phase 1b included efficacy measures and pharmacokinetic parameters, such as Cmax and area under the concentration–time curve over the dosing interval at steady state (AUCτ,ss), which were evaluated at Cycle 1, Day 15.
For series [7] the following is noted: patients with moderate hepatic impairment (Child–Pugh B); cited from earlier work.
For series [8], the system named is Asian patients with advanced HCC. Briefly: Phase 1b dose escalation: DLTs and adverse events.
Experimental: This was an open-label, multicentre, integrated, Phase 1b/2 trial conducted in Asian patients with advanced HCC (NCT01988493). […] Phase 1b was conducted at eight sites and Phase 2 at 43 sites in mainland China, South Korea and Taiwan.
Once three patients had completed one cycle at 500 mg, nine further patients were to be enrolled at this dose level to confirm the RP2D. […] The Safety Monitoring Committee (SMC) could also recommend enrolment of additional patients at or above the RP2D.
In Phase 1b, the primary endpoint was the incidence of investigator-assessed DLTs occurring in Cycle 1, as well as the incidence of other AEs (graded according to the National Cancer Institute Common Terminology and Criteria for Adverse Events, v4.0). […] Secondary endpoints in Phase 1b included efficacy measures and pharmacokinetic parameters, such as Cmax and area under the concentration–time curve over the dosing interval at steady state (AUCτ,ss), which were evaluated at Cycle 1, Day 15.
A further series concerns MET. Also noted: method as in PMID 28862760. The settings on record: cited from earlier work.
For the next series, the system named is HCC with MET alterations. Also noted: method as in PMID 31853265. The following applies: 30 patients with HCC with MET alterations, first-line; cited from earlier work.
Where [9] appears, read: Phase 1b, 500 mg dose, comparator ref 13.
[10] abbreviates: Phase 1b, across all dose cohorts.

These results are taken from publication PMC8292411 (British Journal of Cancer, 2021).

The term AUC denotes concentration integrated over time. Lower therefore signals low exposure. The Cmax is the highest concentration seen after dosing.

Entries after “also recorded” stand apart in the source; their conditions may differ. Structures can show the parent of a compound that is named as a salt. Where two headings read alike, the source gives them in different places.

With `CNC(=O)c1cc(Oc2ccc(NC(=O)Nc3ccc(Cl)c(C(F)(F)F)c3)cc2)ccn1` [Sorafenib, sorafenib], in series [1], the “ORR by IRC” value came to 0%, the “median OS” value turned out to be 8.6 months, the “median PFS assessed by IRC” value came to 1.4 months and the “median investigator-assessed PFS” value is reported as 2.8 months. Besides, the “median investigator-assessed TTP” value in series [1] is given as 2.8 months. In [1] (IRC), the “Best overall response: Complete response” value is on record as 0 (0.0), the “Best overall response: Non-complete response/non-partial response” value is recorded as 0 (0.0), the “Best overall response: Partial response” value is on record as 0 (0.0) and the “Best overall response: Progressive disease” value is on record as 25 (67.6). Also, in series [1] (IRC), the “Best overall response: Stable disease” value is listed as 8 (21.6), the Objective response rate is 0 (0.0) n (%), the disease control came out at 21.6% and the disease control rate is 8 (21.6) n (%). Also, in series [1] (tepotinib 500 mg QD, sorafenib 400 mg twice daily), the “median IRC-assessed time to progression (TTP)” value worked out at 1.4 months. Moreover, in series [2] (Phase 2), the “aspartate transaminase increase, any cause” value amounted to 36.4%; the deaths deemed treatment-related result is listed as “neither were deemed treatment-related”; the “decreased appetite, any cause” value amounted to 40.9%; the “diarrhoea, any cause” value is listed as 38.6%. In series [2] (Phase 2), the “palmar–plantar erythrodysesthesia, any cause” value was 61.4%; the “patients who died due to AEs while on treatment” value is on record as “Two”; the “patients with AEs of any cause” value is on record as 97.7%; the “patients with Grade ≥3 AEs of any cause” value is 70.5%. The “permanent treatment discontinuation due to AEs of any cause” value in series [2] (Phase 2) stood at 13.6%. In addition, in [2] (Phase 2, any grade), the treatment-related diarrhoea came to 31.8% and the “treatment-related palmar–plantar erythrodysesthesia” value worked out at 61.4%. Also, in series [2] (Any grade), the “treatment-related AEs: ALT increased” value is 7 (15.9) n (%), the “treatment-related AEs: AST increased” value is given as 10 (22.7) n (%), the “treatment-related AEs: Alopecia” value is 10 (22.7) n (%) and the “treatment-related AEs: Blood bilirubin increased” value is on record as 8 (18.2) n (%). In addition, in series [2] (Any grade), the “treatment-related AEs: Blood creatinine increased” value was 0 (0.0) n (%), the “treatment-related AEs: Diarrhoea” value was 14 (31.8) n (%), the “treatment-related AEs: Fatigue” value is listed as 11 (25.0) n (%) and the “treatment-related AEs: Hypertension” value is recorded as 11 (25.0) n (%). Also, in series [2] (Any grade), the “treatment-related AEs: Hypoalbuminaemia” value is recorded as 2 (4.5) n (%), the “treatment-related AEs: Oedema peripheral” value is listed as 0 (0.0) n (%), the “treatment-related AEs: Overall” value was 43 (97.7) n (%) and the “treatment-related AEs: PPES” value is recorded as 27 (61.4) n (%). For the same compound, in [2] (Grade ≥ 3), the “treatment-related AEs: ALT increased” value is recorded as 0 (0.0) n (%), the “treatment-related AEs: AST increased” value is reported as 3 (6.8) n (%), the “treatment-related AEs: Alopecia” value is 0 (0.0) n (%) and the “treatment-related AEs: Blood bilirubin increased” value was 2 (4.5) n (%). Moreover, in series [2] (Grade ≥ 3), the “treatment-related AEs: Blood creatinine increased” value is on record as 0 (0.0) n (%), the “treatment-related AEs: Diarrhoea” value was 3 (6.8) n (%), the “treatment-related AEs: Fatigue” value was 0 (0.0) n (%) and the “treatment-related AEs: Hypertension” value was 6 (13.6) n (%). Further, in [2] (Grade ≥ 3), the “treatment-related AEs: Hypoalbuminaemia” value was 0 (0.0) n (%), the “treatment-related AEs: Oedema peripheral” value was 0 (0.0) n (%), the “treatment-related AEs: Overall” value was 20 (45.5) n (%) and the “treatment-related AEs: PPES” value is reported as 3 (6.8) n (%). In series [2] (Phase 2, text), the “treatment-related AEs, Grade ≥3, overall” value was found to be 45.5% and the “treatment-related AEs, any grade, overall” value was determined as 97.7%. For the same compound, in the series with advanced HCC [3], the “median TTP” value is 5.5 months. Besides, the “median TTP” value in the series with advanced HCC [4] is on record as 2.8 months.

On to `CN1CCC(COc2cnc(-c3cccc(Cn4nc(-c5cccc(C#N)c5)ccc4=O)c3)nc2)CC1` [Tepotinib, tepotinib hydrochloride hydrate], for which, in the series with advanced HCC [5] (Phase 1b, 300 mg cohort), the “best overall response of progressive disease” value came to 85.7%, the “best overall response of stable disease” value amounted to 14.3% and the disease control rate was 14.3%. In the series on advanced HCC [5] (Phase 1b, 500 mg cohort), the “best overall response of progressive disease” value is recorded as 35.7%, the “best overall response of stable disease” value is given as 42.9%, the “objective response rate (ORR)” value is reported as 7.1% and the “duration of partial response” value is 19 months. Moreover, in the series with advanced HCC [5] (Phase 1b, 1,000 mg cohort), the “best overall response of progressive disease” value amounted to 50.0%, the “best overall response of stable disease” value is recorded as 33.3%, the “objective response rate (ORR)” value was found to be 16.7% and the “duration of partial response” value worked out at 4.4 months. Also, in [6] (setting [9]), the “AUCτ as percentage of that observed in the first-in-human trial” value came out at 61% and the “Cmax as percentage of that observed in the first-in-human trial” value amounted to 63%. Besides, in series [6] (1000 mg, Phase 1b, 1,000 mg QD), the AUC came out at 28600 ng·h/mL and the peak level (Cmax) was 1370 ng/mL. In [6] (Phase 1b, 300 mg QD), the AUC is 11800 ng·h/mL and the peak concentration (Cmax) stood at 585 ng/mL. In series [6] (Phase 1b, 500 mg QD), this compound showed an AUC of 16700 ng·h/mL and a Cmax of 815 ng/mL. Moreover, in [7], the “lower AUC from time 0 to infinity versus control subjects without hepatic impairment” value was 12% and the “lower Cmax versus control subjects without hepatic impairment” value is 29%. Moreover, the “dose-limiting toxicities (DLTs)” value in series [8] (Phase 1b, 300, 500 or 1,000 mg QD, Cycle 1) was “no DLTs occurred; also recorded: No DLTs were observed; also recorded: no DLTs were reported”. Moreover, in [8] (setting [10]), the “treatment-related AEs, Grade ≥3” value amounted to 33.3% and the “treatment-related AEs, any grade” value was found to be 81.5%. Moreover, the “patients with AEs of any cause” value in series [8] (Phase 1b, n = 27) is given as “All patients”.

Take `COc1cc2nccc(Oc3ccc(NC(=O)C4(C(=O)Nc5ccc(F)cc5)CC4)cc3)c2cc1OC` [cabozantinib]: the “in vitro IC50 for MET inhibition” value in the series on MET is “low nanomolar range”.

For the compound `CNC(=O)c1ccc(-c2cnc3ncc(Cc4ccc5ncccc5c4)n3n2)cc1F` [capmatinib], the ORR with HCC with MET alterations is given as 10%.

With `O=C1NC(=O)[C@@H](c2cn3c4c(cccc24)CCC3)[C@@H]1c1c[nH]c2ccccc12` [tivantinib], the “affinity for the MET receptor” value in the series with MET (relative to tepotinib, cabozantinib and capmatinib) was “lower affinity for the receptor”.
